Reference: patent US6693123B2 (University of Pittsburgh, priority 1995, dated 2004)
Counter-ions that a name gives are not always drawn.

The compounds below were run against T1, Rat brain protein farnesyltransferase (Rattus norvegicus, UniProt Q02293+Q04631) (assay: In vitro inhibition of protein farnesyltransferase, Amersham scintillation proximity assay with biotin-K Ras B fragment). Details: Inhibition of farnesyltransferase; compound at 1 × 10^−6 M (Table 2).
T1 construct: The enzyme is purified according to Reiss, Y., et al., Cell, 62: 81-88 (1990), utilizing steps one through three; from tissue; host or cells: rat brain
Format: biochemical
Text: The ability of the compounds of the invention to inhibit protein farnesyltransferase or protein geranylgeranyltransferase can be measured according to the method of Moores, et al., J. Biol. Chem. 266: 14603 (1991) or the method of Vogt, et al., J. Biol. Chem. 270:660-664 (1995). In addition, procedures for determination of the inhibition of farnesylation of the oncogene protein Ras are described by Goldstein, et al., J. Biol. Chem., 266:15575-15578 (1991) and by Singh in U.S. Pat. No. 5,245,061.
In addition, in vitro inhibition of protein farnesyltransferase may be measured by the following procedure. Rat brain protein farnesyltransferase activity is measured using an Amersham Life Science commercial scintillation proximity assay kit and substituting a biotin-K Ras B fragment (biotin-[…]Ue-Met-CO2H), 0.1 mM final concentration, for the biotin-lamin substrate provided by Amersham. The enzyme is purified according to Reiss, Y., et al., Cell, 62: 81-88 (1990), utilizing steps one through three. […]
The % inhibition of protein farnesyltransferase was determined for representative compounds of the invention.

Row | Compound | % inhibition at 1 × 10^−6 M
1 | CSCCC(NC(=O)c1ccc(C=Cc2cccnc2)cc1-c1ccccc1C)C(=O)NS(=O)(=O)c1ccc(C)cc1 (stereo not shown) [Example 277, {4-[2-(Pyrid-3-yl)ethenyl]-2-(2-methylphenyl)benzoyl}methionine 4-Tolylsulfonamide] | 98%
2 | CSCC[C@H](NC(=O)c1ccc(C=Cc2cccnc2)cc1-c1ccccc1C)C(=O)OCOC(C)=O [Example 295] | 94%
3 | CSCC[C@H](NC(=O)c1ccc(C=Cc2cccnc2)cc1-c1ccccc1C)C(=O)OCOC(=O)C(C)(C)C [Example 296] | 89%
4 | Cc1ccccc1-c1cc(COc2cccnc2)ccc1C(=O)N[C@@H](CCC(N)=O)C(=O)O [Example 313, (S)-2-N-[4-(3-Pyridyloxymethyl)-2-(2-methyl)phenylbenzoyl]amino-4-(aminocarbonyl)butanoic Acid] | 94%
5 | CNC(=O)CC[C@H](NC(=O)c1ccc(COc2cccnc2)cc1-c1ccccc1C)C(=O)O [Example 314, (S)-2-N-[4-(3-Pyridyloxymethyl)-2-(2-methylphenyl)benzoyl]amino-4-(N-methylaminocarbonyl)butanoic Acid] | 97%
6 | CCNC(=O)CC[C@H](NC(=O)c1ccc(COc2cccnc2)cc1-c1ccccc1C)C(=O)O [Example 315, (S)-2-N-[4-(3-Pyridyloxymethyl)-2-(2-methylphenyl)benzoyl]amino-4-(N-ethylaminocarbonyl)butanoic Acid] | 93%
7 | CSCCC(NC(=O)c1ccc(COc2cccnc2)cc1-c1ccccc1)C(=O)NS(=O)(=O)N1CCOCC1 (stereo not shown) [Example 318, [4-(3-Pyridyloxymethyl)-2-phenylbenzoyl]methionine 1-Morpholinylsulfonimide] | 98%
8 | CSCC[C@H](NC(=O)c1ccc(CSc2cccnc2)cc1-c1ccccc1C)C(=O)O [Example 324] | 98%
9 | CSCC[C@H](NC(=O)c1ccc(COc2cccnc2)cc1-c1ccccc1)C(=O)OCc1oc(=O)oc1C [Example 326, [4-(3-Pyridyloxymethyl)-2-phenylbenzoyl]methionine O-Dimethylvinylene Carbonate Ester] | 91%

Same assay, conditions: Inhibition of farnesyltransferase; compound at 1 × 10^−6 M (Table 2); read-out: % inhibition at 1 × 10^−6 M

Row | inhibition at 1 µM | Compound
10 | 77% | CSCC[C@H](NC(=O)c1ccc(COc2cccnc2)cc1-c1ccccc1)C(=O)NO [Example 249, [4-(3-Pyridyloxymethyl)-2-phenylbenzoyl]methionine Hydroxamic Acid]
11 | 96% | CSCC[C@H](NC(=O)c1ccc(COc2cccnc2)cc1-c1ccccc1)C(=O)NS(C)(=O)=O [Example 250, [4-(3-Pyridyloxymethyl)-2-phenylbenzoyl]methionine Methylsulfonimide]
12 | 98% | CSCC[C@H](NC(=O)c1ccc(COc2cccnc2)cc1-c1ccccc1C)C(=O)NS(C)(=O)=O [Example 252, [4-(3-Pyridyloxymethyl)-2-(2-methylphenyl)benzoyl]methionine Methylsulfonimide]
13 | 99% | CSCC[C@H](NC(=O)c1ccc(COc2cccnc2)cc1-c1ccccc1C)C(=O)NS(=O)(=O)c1ccccc1 [Example 253, [4-(3-Pyridyloxymethyl)-2-(2-methylphenyl)benzoyl]methionine Phenylsulfonimide]
14 | 98% | CSCC[C@H](NC(=O)c1ccc(C=Cc2cccnc2)cc1-c1ccccc1C)C(=O)O [Example 276, {4-[2-(Pyrid-3-yl)ethenyl]-2-(2-methylphenyl)benzoyl}methionine Sodium Salt]
15 | 98% | COc1ccncc1NCc1ccc(C(=O)N[C@@H](CCSC)C(=O)O)c(-c2ccccc2)c1 [Example 281, [4-(4-Methoxypyrid-3-ylaminomethyl)-2-phenylbenzoyl]methionine Sodium Salt]
16 | 43% | CSCC[C@H](NC(=O)c1ccc(C(O)c2ccncc2)cc1-c1ccccc1)C(=O)O (stereo partly shown) [Example 298, [4-(4-Pyridylhydroxymethyl)-2-phenylbenzoyl]methionine Sodium Salt]
17 | 22% | COC(=O)[C@H](CCSC)NC(=O)c1ccc(NC(=O)c2cccnc2)cc1-c1ccccc1C [Example 300, [4-(3-Pyridylcarbonylamino)-2-(2-methylphenyl)benzoyl]methionine Methyl Ester]
18 | 98% | CSCC[C@H](NC(=O)c1ccc(NC(=O)c2cccnc2)cc1-c1ccccc1C)C(=O)O [Example 301, [4-(3-Pyridylcarbonylamino)-2-(2-methylphenyl)benzoyl]methionine]
19 | 82% | COC(=O)[C@H](CCSC)NC(=O)c1ccc(COc2cccnc2)cc1-c1ccccc1C [Example 307, [4-(3-Pyridyloxymethyl)-2-(2-methylphenyl)benzoyl]methionine Methyl Ester]
20 | 62% | COC(=O)[C@H](CCSC)NC(=O)c1ccc(NCc2cccnc2)cc1-c1ccccc1C [Example 308, [4-(3-Pyridylmethylamino)-2-(2-methylphenyl)benzoyl]methionine Methyl Ester]
21 | 98% | CSCC[C@H](NC(=O)c1ccc(NCc2cccnc2)cc1-c1ccccc1C)C(=O)O [Example 309, [4-(3-Pyridylmethylamino)-2-(2-methylphenyl)benzoyl]methionine]
22 | 97% | Cc1ccccc1-c1cc(COc2cccnc2)ccc1C(=O)N[C@@H](CCS(C)(=O)=O)C(=O)O [Example 311, N-[4-(3-Pyridyloxymethyl)-2-(2-methylphenyl)benzoyl]-2-amino-4-(methylsulfonyl)butanoic Acid]
23 | 63% | NC(=O)CC[C@H](NC(=O)c1ccc(COc2cccnc2)cc1-c1ccccc1)C(=O)O [Example 316, (S)-2-N-[4-(3-Pyridyloxymethyl)-2-phenylbenzoyl]amino-4-(aminocarbonyl)butanoic Acid]
24 | 98% | CCCCc1cc(C(=O)N[C@@H](CCSC)C(=O)O)c(-c2ccccc2C)cc1COc1cccnc1 [Example 319, [4-(3-Pyridyloxymethyl)-2-(2-methylphenyl)-5-butylbenzoyl]methionine]
25 | 93% | CSCC[C@H](NC(=O)c1cc(CC(C)C)c(COc2cccnc2)cc1-c1ccccc1C)C(=O)O [Example 320, [4-(3-Pyridyloxymethyl)-2-(2-methylphenyl)-5-isobutylbenzoyl]methionine]
26 | 99% | CSCC[C@H](NC(=O)c1ccc(CSc2cccnc2)cc1-c1ccccc1C)C(=O)NS(=O)(=O)c1ccccc1 [Example 325]
27 | 98% | CSCC[C@H](NC(=O)c1ccc(CCc2c[nH]cn2)cc1-c1ccccc1)C(=O)O [Example 329, {4-[2-(1H-Imidazol-4-yl)ethyl]-2-phenylbenzoyl}methionine]
28 | 98% | CSCC[C@H](NC(=O)c1ccc(CSCc2c[nH]cn2)cc1-c1ccccc1C)C(=O)O [Example 331, [4-(1H-Imidazol-4-ylmethylthiomethyl)-2-(2-methylphenyl)benzoyl]methionine]
29 | 26% | CSCC[C@H](NC(=O)c1ccc(CNC(=O)c2cn(C)cn2)cc1-c1ccccc1)C(=O)O [Example 332, [4-(1H-1-Methylimidazol-4-ylcarbonylaminomethyl)-2-phenylbenzoyl]methionine]

Same assay, conditions: read-out: % inhibition at 1 × 10^−6 M

Row | Compound | inhibition at 1 µM
30 | CSCC[C@H](NC(=O)c1ccc(COc2cccnc2)cc1-c1ccccc1)c1nnc(C(F)(F)F)[nH]1 [Example 272, N-[3-(Methylthio)-1-(2-trifluoromethyl-1H-1,3,4-triazol-5-yl)propyl]-4-(3-pyridyloxymethyl)-2-phenylbenzamide] | 96%
31 | CSCC[C@H](NC(=O)c1ccc(/C=C/n2ccnc2)cc1-c1ccccc1C)C(=O)O [Example 278, {4-[2-(1H-1-Imidazolyl)ethenyl]-2-(2-methylphenyl)benzoyl}methionine Sodium Salt] | 99%
32 | CSCC[C@H](NC(=O)c1ccc(CCn2ccnc2)cc1-c1ccccc1C)C(=O)O [Example 279, {4-[2-(1H-1-Imidazolyl)ethyl]-2-(2-methylphenyl)benzoyl}methionine Sodium Salt] | 99%
33 | CSCC[C@H](NC(=O)c1ccc(CNc2cnccc2C)cc1-c1ccccc1)C(=O)O [Example 280] | 98%
34 | CSCC[C@H](NC(=O)c1ccc(NC(=O)c2cnccc2C(F)(F)F)cc1-c1ccccc1)C(=O)O [Example 282, [4-(4-Trifluoromethylpyrid-3-ylcarbonylamino)-2-phenylbenzoyl]methionine Sodium Salt] | 76%
35 | CSCC[C@H](NC(=O)c1ccc(C=Cc2cccnc2)cc1-c1ccccc1C)C(=O)OCCN(C)C [Example 294, {4-[2-(Pyrid-3-yl)ethenyl]-2-(2-methylphenyl)benzoyl}methionine Dimethylaminoethyl Ester] | 98%
36 | CSCC[C@H](NC(=O)c1ccc(C(O[Si](C)(C)C(C)(C)C)c2ccncc2)cc1-c1ccccc1)C(=O)O (stereo partly shown) [Example 297, [4-(4-Pyridyl-t-butyldimethylsilyloxymethyl)-2-phenylbenzoyl]methionine Sodium Salt] | 65%
37 | CSCC[C@H](NC(=O)c1ccc(COc2cccnc2)cc1-c1ccccc1C(F)(F)F)C(=O)O [Example 304, [4-(3-Pyridyloxymethyl)-2-(2-trifluoromethylphenyl)benzoyl]methionine] | 99%
